Measured values taken from ChEMBL document CHEMBL3779873, “Rubrolide analogues and their derived lactams as potential anticancer agents” (Medchemcomm, 2016).
≈ marks a conversion by molar mass, not a printed value.

Legend:
[1] = Cytotoxicity against human HCT116 cells after 72 hrs by MTT assay; format: functional, HCT-116
[2] = Cytotoxicity against human OVCAR8 cells after 72 hrs by MTT assay; format: functional, OVCAR-8
[3] = Cytotoxicity against human HL60 cells after 72 hrs by MTT assay; format: functional, HL-60
[4] = Cytotoxicity against human SF295 cells after 72 hrs by MTT assay; format: functional, SF-295
[5] = Cytotoxicity against human SF295 cells assessed as reduction in cell viability at 25 ug/mL after 72 hrs by MTT assay; format: functional, SF-295
[6] = Cytotoxicity against human OVCAR8 cells assessed as reduction in cell viability at 25 ug/mL after 72 hrs by MTT assay; format: functional, OVCAR-8
[7] = Cytotoxicity against human HCT116 cells assessed as reduction in cell viability at 25 ug/mL after 72 hrs by MTT assay; format: functional, HCT-116
[8] = tested on: HT-29; test: Cytotoxicity against human HT-29 cells; format: functional; conditions: read-out: ED50 (the source's name)

For `COc1ccc(Cl)cc1C1=C(Br)C(=O)O/C1=C\c1ccc(C(F)(F)F)cc1`, the RC50 [1] was 12.66 µM, the RC50 [2] was 7.51 µM and the RC50 [3] was 5.5 µM. The RC50 [4] was 14.12 µM, the Activity [5] was 80.1% and the Activity [6] was 96.84%. For the same compound, the Activity [7] was 91.81%.
`COc1ccccc1C1=C(Br)C(=O)N(CC(C)C)/C1=C/c1ccc(C(F)(F)F)cc1` showed an Activity [5] of 84.72%, an Activity [6] of 75.07% and an Activity [7] of 88.8%.
`COc1ccc(Br)cc1-c1c(Cc2ccccc2Cl)n[nH]c(=O)c1Br` gave an Activity [5] of 47.29%, an Activity [6] of 27.93% and an Activity [7] of 38.1%.
Compound `O=C1O/C(=C\c2ccc(C(F)(F)F)cc2)C(Cl)=C1Cl` has an Activity [5] of 92.21%, an Activity [6] of 98.2% and an Activity [7] of 76.92%.
`COc1ccc(Br)cc1C1=C(Br)C(=O)N(CC(C)C)/C1=C\c1cccc(Cl)c1` showed an Activity [5] of 72.36%, an Activity [6] of 52.15% and an Activity [7] of 86.98%.
With `COc1ccc(Br)cc1C1=C(Br)C(=O)O/C1=C\c1ccc(F)cc1` the RC50 [1] was 13.06 µM, the RC50 [2] was 5.17 µM and the RC50 [3] was 9.8 µM. The RC50 [4] was 15.44 µM, the Activity [5] was 82.06% and the Activity [6] was 94.68%. It also gave an Activity [7] of 94.87%.
With `COc1ccc(Br)cc1C1=C(Br)C(=O)O/C1=C\c1ccc(Br)cc1` the Activity [5] was 75.68%, the Activity [6] was 98.28% and the Activity [7] was 97.53%.
For `COc1ccc(Cl)cc1C1=C(Br)C(=O)O/C1=C\c1ccc(F)cc1`, the Activity [5] was 84.72%, the Activity [6] was 32.6% and the Activity [7] was 55.49%.
`COc1ccc(C)cc1C1=C(Br)C(=O)O/C1=C\c1ccccc1Cl` showed an Activity [5] of 2.02%, an Activity [6] of 26.18% and an Activity [7] of 35.84%.
In the case of `CC(C)CN1C(=O)C(Cl)=C(Cl)C1(O)Cc1ccc(Br)cc1` (stereo unspecified), the Activity [5] is reported as 42.06%, the Activity [6] is reported as 13.42% and the Activity [7] is reported as 49.89%.
With `COc1ccc(Br)cc1C1=C(Br)C(=O)N(CC(C)C)/C1=C/c1ccc(Br)cc1` the Activity [5] was 53.77%, the Activity [6] was 90.66% and the Activity [7] was 97.98%.
Work on `O=C1O/C(=C\c2ccccc2Br)C(Cl)=C1Cl` yielded an RC50 [1] of 32.22 µM, an RC50 [2] of 11.64 µM and an RC50 [3] of 10.01 µM. The RC50 [4] was 32.64 µM, the Activity [5] was 92.81% and the Activity [6] was 93.14%. For the same compound, the Activity [7] was 97.58%.
Work on `COc1ccc(Br)cc1C1=C(Br)C(=O)N(CC(C)C)C1(O)Cc1cccc(Cl)c1` (stereo unspecified) yielded an Activity [5] of 78.09%, an Activity [6] of 98.49% and an Activity [7] of 92.75%.
With `COc1cccc(/C=C2/C(c3cc(Cl)ccc3OC)=C(Br)C(=O)N2CC(C)C)c1` the Activity [5] was 25.57%, the Activity [6] was 42.28% and the Activity [7] was 38.65%.
Work on `CCCN1C(=O)C(Cl)=C(Cl)C1(O)Cc1ccc(F)cc1` (stereo unspecified) yielded an Activity [5] of 10.95%, an Activity [6] of 9.25% and an Activity [7] of 25.82%.
Work on `COc1ccc(Br)cc1C1=C(Br)C(=O)N(CC(C)C)/C1=C\c1ccc(Br)cc1` yielded an Activity [5] of 30.25%, an Activity [6] of 25.49% and an Activity [7] of 44.22%.
Work on `COc1cccc(/C=C2\OC(=O)C(Br)=C2c2cc(Cl)ccc2OC)c1` yielded an Activity [5] of 48.09%, an Activity [6] of 97.92% and an Activity [7] of 97.09%.
Compound `O=C1O/C(=C\c2ccc3c(c2)OCO3)C(Cl)=C1Cl` has an Activity [5] of 87.84%, an Activity [6] of 94.9% and an Activity [7] of 53.64%.
`O=C1O/C(=C\c2ccc(Cl)cc2)C(Cl)=C1Cl` showed an Activity [5] of 48.84%, an Activity [6] of 0% and an Activity [7] of 95.81%.
Compound `COc1ccccc1C1=C(Br)C(=O)N(CC(C)C)/C1=C\c1ccc(C(F)(F)F)cc1` has an Activity [5] of 51.01%, an Activity [6] of 47.91% and an Activity [7] of 79.09%.
`O=C1O/C(=C\c2ccc(F)cc2)C(Cl)=C1Cl` gave an Activity [5] of 68.44%, an Activity [6] of 98.99% and an Activity [7] of 97.68%.
Work on `COc1ccc(Br)cc1C1=C(Br)C(=O)N(CC(C)C)C1(O)Cc1ccc(Br)cc1` (stereo unspecified) yielded an Activity [5] of 56.18%, an Activity [6] of 32.1% and an Activity [7] of 82.39%.
Compound `COc1cccc(/C=C2\C(c3cc(Cl)ccc3OC)=C(Br)C(=O)N2CC(C)C)c1` has an Activity [5] of 79.36%, an Activity [6] of 55.28% and an Activity [7] of 75.51%.
For `COc1ccc(Br)cc1C1=C(Br)C(=O)O/C1=C\c1ccccc1Cl`, the Activity [5] was 49.4%, the Activity [6] was 57.61% and the Activity [7] was 74.4%.
Compound `COc1ccc(Br)cc1-c1c(Cc2ccc(F)cc2)n[nH]c(=O)c1Br` has an Activity [5] of 48.14%, an Activity [6] of 29.08% and an Activity [7] of 59.8%.
Work on `CCCN1C(=O)C(Cl)=C(Cl)/C1=C\c1ccc(F)cc1` yielded an Activity [5] of 97.74%, an Activity [6] of 99.07% and an Activity [7] of 64.83%.
For `CC(C)CN1C(=O)C(Cl)=C(Cl)/C1=C\c1ccc(Br)cc1`, the Activity [5] was 58.59%, the Activity [6] was 52.94% and the Activity [7] was 57.48%.
`O=C1O/C(=C\c2cccc(Cl)c2)C(Cl)=C1Cl` showed an Activity [5] of 86.08%, an Activity [6] of 99.86% and an Activity [7] of 62.17%.
For `O=C1O/C(=C\c2ccc(O)c(Br)c2)C(c2ccc(O)c(Br)c2)=C1Cl`, the EC50 [8] was 1.2 µg/mL (≈ 2.54 µM).
`CC(C)CN1C(=O)C(Cl)=C(Cl)/C1=C/c1ccc(Br)cc1` showed an Activity [5] of 48.29%, an Activity [6] of 54.45% and an Activity [7] of 97.93%.
For `COc1cccc(CC2(O)C(c3cc(Cl)ccc3OC)=C(Br)C(=O)N2CC(C)C)c1` (stereo unspecified), the Activity [5] was 69.2%, the Activity [6] was 27% and the Activity [7] was 67.25%.
In the case of `COc1ccccc1C1=C(Br)C(=O)O/C1=C\c1ccc(C(F)(F)F)cc1`, the Activity [5] is reported as 71.31%, the Activity [6] is reported as 98.85% and the Activity [7] is reported as 84.46%.
`COc1cccc(Cc2n[nH]c(=O)c(Br)c2-c2cc(Br)ccc2OC)c1` gave an Activity [5] of 30.95%, an Activity [6] of 10.69% and an Activity [7] of 10.78%.
In the case of `COc1ccccc1C1=C(Br)C(=O)N(CC(C)C)C1(O)Cc1ccc(C(F)(F)F)cc1` (stereo unspecified), the Activity [5] is reported as 67.94%, the Activity [6] is reported as 21.61% and the Activity [7] is reported as 78.84%.
With `COc1ccc(Cl)cc1-c1c(Cc2ccc(F)cc2)n[nH]c(=O)c1Br` the Activity [5] was 18.95%, the Activity [6] was 42.17% and the Activity [7] was 14.71%.
Compound `O=C1O/C(=C\c2ccc([N+](=O)[O-])cc2)C(Cl)=C1Cl` has an RC50 [1] of 22.76 µM, an RC50 [2] of 9.51 µM and an RC50 [3] of 8.98 µM. The RC50 [4] was 29.37 µM, the Activity [5] was 84.12% and the Activity [6] was 98.2%. For the same compound, the Activity [7] was 93.05%.
Work on `COc1ccc(C)cc1C1=C(Br)C(=O)N(CC(C)C)/C1=C/c1ccccc1Cl` yielded an Activity [5] of 6.91%, an Activity [6] of 34.8% and an Activity [7] of 19.23%.
Compound `COc1ccc(Br)cc1C1=C(Br)C(=O)N(CC(C)C)/C1=C/c1cccc(Cl)c1` has an RC50 [1] of 5.52 µM, an RC50 [2] of 4.18 µM and an RC50 [3] of 3.46 µM. The RC50 [4] was 8.03 µM, the Activity [5] was 90.65% and the Activity [6] was 93.39%. It also gave an Activity [7] of 93.44%.
For `COc1ccc(C)cc1C1=C(Br)C(=O)N(CC(C)C)/C1=C\c1ccccc1Cl`, the Activity [5] was 61.86%, the Activity [6] was 20.46% and the Activity [7] was 77.02%.
`COc1ccc(Br)cc1-c1c(Cc2ccc(C(F)(F)F)cc2)n[nH]c(=O)c1Br` showed an Activity [5] of 74.92%, an Activity [6] of 46.18% and an Activity [7] of 98.03%.
`COc1ccc(Cl)cc1-c1c(Cc2cccc([N+](=O)[O-])c2)n[nH]c(=O)c1Br` showed an Activity [5] of 47.34%, an Activity [6] of 37.42% and an Activity [7] of 31.84%.
In the case of `O=C1O/C(=C\c2ccc(O)c(Br)c2)C(c2ccc(O)cc2)=C1Cl`, the EC50 [8] is reported as 1.2 µg/mL (≈ 3.05 µM).
Compound `COc1ccc(Cl)cc1-c1c(Cc2ccc(C(F)(F)F)cc2)n[nH]c(=O)c1Br` has an Activity [5] of 73.87%, an Activity [6] of 53.87% and an Activity [7] of 97.73%.
`COc1ccc(C)cc1C1=C(Br)C(=O)N(CC(C)C)C1(O)Cc1ccccc1Cl` (stereo unspecified) showed an Activity [5] of 63.57%, an Activity [6] of 44.39% and an Activity [7] of 78.5%.
Work on `COc1ccc(Cl)cc1C1=C(Br)C(=O)O/C1=C\c1ccc([N+](=O)[O-])cc1` yielded an Activity [5] of 82.86%, an Activity [6] of 53.71% and an Activity [7] of 92.2%.
